# In US20050197286A1, “Method for control of depression using c terminal growth hormone (gh) fragment” (priority 2002, published 2005):
# “Also recorded” adds a separate entry of the source.
# Tests used:
# [1] = tested on: patients suffering from growth hormone deficiency; details: several studies, references 1-24; cited from earlier work
# healthy lean males = type: in vivo, human
# Method: The selection of 25, 50 and 100 μg/kg doses of AOD9604 used in this study was based on the results from a previous Phase I study, conducted from February-June 2001, in healthy lean males using a dose range of 25-400 μg/kg AOD9604.
# [2] = tested on: obese adult male subjects; assay: Double-blind, placebo-controlled single intravenous dose study of AOD9604 (Example 1); type: in vivo, human
# Method: The objective of this study was to characterise the safety, tolerability and pharmacodynamic effects of AOD9604 following single intravenous administration to obese adult male subjects. The study was performed by CMAX Pty Ltd under contract to Metabolic Pharmaceuticals Ltd.
# The study was designed as a double-blind, placebo-controlled, 4×4 Williams Latin Square design, intravenous dose study included twenty four (obese Body mass index (BMI) of ≧35 kg/m^2 and a waist circumference of ≧110 cm) adult subjects with each subject receiving active study drug on each of three occasions and placebo on one occasion. Treatment allocation was randomised according to a Master Randomisation Schedule.
# Subjects who provided written informed consent and who met all inclusion/exclusion criteria were randomised to receive each of the four treatments according to the study Master Randomisation Schedule. The subjects were randomised to receive a single dose of 25, 50 and 100 μg/kg AOD9604 and a single dose of placebo (5% mannitol solution) over the four periods of the study. Dose administration was by intravenous infusion, and was conducted over a period of 10 minutes.
# During each in-clinic stay, blood samples were collected at specified times both prior to and following dose administration for the determination of pharmacodynamic parameters of non-esterified fatty acids (NEFA), glycerol, glucose and IGF-1. For the purposes of safety monitoring, the physical condition (physical examination, blood pressure, pulse, temperature and general well being) of the subjects was monitored both prior to and at specified intervals during each study period. ECG monitoring was performed prior to the infusion, at the end of the infusion and at specified times following the end of the infusion. Blood samples were also collected for assessment of haematological and biochemical parameters. Subjects were released from the clinic following the 24 hour post-dose blood sample and physical examination. Subjects returned to the clinic for the following period after a 7-day washout period. Within 14 days of the final period (Period 4), an Exit Evaluation was performed, involving the following assessments: physical examination (including ECG monitoring), body height and weight determination, vital sign measurements, questions regarding adverse events, collection of blood samples for the assessment of haematological and biochemical parameters, and collection of a urine sample for urinalysis and microscopy. A further 5 mL blood sample was collected and the serum stored for possible antibody analysis to be done at a later date.
# Treatment A: A single dose of 25 μg/kg AOD9604 administered intravenously via an infusion pump over a 10 minute period.
# Treatment B: A single dose of 50 μg/kg AOD9604 administered intravenously via an infusion pump over a 10 minute period.
# Treatment C: A single dose of 100 μg/kg AOD9604 administered intravenously via an infusion pump over a 10 minute period.
# Each subject received one of each of three doses of the active study drug, AOD9604 (25, 50, and 100 μg/kg) on three occasions and a placebo on one occasion. The doses were administered as intravenous infusions of 10 minute duration with a wash-out period of 7 days between each consecutive treatment. Subjects were not permitted to eat or drink anything, except for water, for at least 10 hours prior to and 2 hours following administration of the dose. Meals were timed in relation to the end of dosing, as follows: Snack (2 hours and 5 minutes), Lunch (4 hours and 5 minutes), Dinner (10 hours and 5 minutes) and Snack (13 hours and 5 minutes).
# [3] = tested on: obese adult male subjects; assay: Double-blind multiple oral dose escalation study of AOD9604 (Example 3, Phase 2A); type: in vivo, human
# Source text: The objective of this study was to characterise the safety and tolerability and the pharmacodynamic profile of AOD9604 following multiple oral administration to obese adult male subjects.
# This was a double-blind, placebo-controlled, 3 period, oral dose, dose escalation study with randomization directed such that each subject received 7 doses of active study drug or placebo over one 7-day period, i.e. one dose per day for 7 days. There were up to three dose levels of AOD9604 and placebo studied in 3 cohorts of 12 subjects each. In each study period, 12 subjects were randomised so that 9 received active study drug and 3 received placebo. There was a period of 7 days between study periods to allow for appropriate safety review and permission to progress to the next dose level.
# The eligibility criteria of subjects were as for Example 2, except that the age range was 18 to 60 years of age, and the BMI threshold was ≧30 kg/m^2, since the primary aim of the study was safety assessment. The restrictions on the subjects and the conduct of the study again were generally as in Example 2.
# There were three study periods, and the dose strengths used were 10 mg, 30 mg, 60 mg and placebo, with seven doses per study period. The formulation of AOD9604 and placebo were as for Example 2.
# For each treatment, capsules were administered orally every day for 7 days with 240 mL of room temperature water following at least a 12 hour overnight fast.
# The patients were asked to complete the SF-36 Quality of Life Questionnaire (Ware J. J. and Sherbourne C. D. (1992) The MOS 36-item short-form health survey (SF-36). I. Conceptual framework and item selection. Medical Care; 30:473-83) at days 0, 8 and 14. The results are illustrated in FIG. 2, A and B and FIG. 3, A and B. The SF-36 questionnaire is different to the questionnaire used in the Phase 2A […] single dose trial of Example 2. SF-36 provides only positive numerical values for mood assessment, with higher values indicating greater happiness, and lower values indicating lower happiness. (The graphs in FIGS. 2 and 3 however do have some negative values because they are representing the change in mood from pre-treatment.) FIGS. 2 and 3 show a similar bell-shaped dose response on mood as that observed in Example 1 (only it is a reversed bell-shape in comparison to Example 1). […] There was an improvement in the mental aggregate scores, relative to placebo, at the 10 mg dose on day 8, and a worsening at the 30 mg and 60 mg doses relative to placebo.
# [4] = tested on: obese adult male subjects; assay: Double-blind single oral dose study of AOD9604 (Example 2, Phase 2A); type: in vivo, human
# Source text: The objective of this study was to characterise the safety, tolerability, pharmacodynamic and pharmacokinetic effects of AOD9604 following single oral administration to obese adult male subjects.
# The study was a double-blind, placebo controlled, 4×4 Williams Latin Square design, single oral dose study, planned to include 16 subjects. Each subject received active study drug on each of three occasions and placebo on one occasion. There was a washout period of 14 days between the doses administered in each study period.
# Eligibility criteria were the same as for Example 1, except that the age range of the subjects was 35 to 60 years of age inclusive.
# There were four study treatments, and each subject received each of the four treatments on four separate occasions, separated by a fourteen day wash out period. The dose strengths were as follows: • 10 mg (76.9 μg/kg for 130 kg subject); • 30 mg (230.8 μg/kg for 130 kg subject); • 60 mg (461.5 μg/kg for 130 kg subject); and • placebo.
# The active pharmaceutical formulation was Size-0 capsules (Shionogi Qualicaps Co. Ltd.) of 10 mg AOD9604 containing 3.9% AOD9604, 84.1% Mannitol (USP) and 12% PEG3350, USP. Placebo capsules contained excipients only.
# For each treatment, capsules were administered orally with 240 mL of room temperature water following at least a 12 hour overnight fast. Study personnel inspected the oral cavity to confirm that the subject has ingested the study treatment following each dose.
# In the Phase 2A single dose intravenous trial, reported in Example 1, mild euphoria was reported by several patients who received drug and none who received placebo. The patients taking part in this single dose oral treatment were therefore asked to complete the Nottingham Health Profile questionnaire (see Wiklund I. (1990) The Nottingham Health Profile—a measure of health-related quality of life. Scand. J. Prim. Health Care Suppl. 1:15-8) before dose and 7 days after dose.
# C57Bl/6J (Ob/Ob) mouse = details: Australian patent No. 693478; cited from earlier work
# [5] = single iv infusion 25, 50 or 100 μg/kg, only in periods with active drug, none with placebo
substance,measurement,setting,value
"Intact growth hormone: intact growth hormone, the full hormone from which the C-terminal fragments derive",effect on mood,[1],positive effects on mood
Tyr-hGH 177-191 [AOD9604],pharmacodynamic response at 50 μg/kg,healthy lean males; 50 μg/kg,a response had been shown
same,pharmacodynamic response at high dose,healthy lean males; dose increased to 200 μg/kg and higher,response diminished
same,pharmacodynamic response,healthy lean males; iv dose range 25-400 μg/kg,A pharmacodynamic response was seen
same,mean serum NEFA compared to placebo,"[2]; 2 hours post dose, all AOD9604 doses (25, 50, 100 μg/kg iv)",rose more
same,severity of euphoria,[2]; after a single iv dose of active drug,mild to moderate euphoria; also recorded: mild or moderate euphoria
same,weight loss in older patients compared to placebo,"[2]; aged 35+ (N=13), highest dose 100 μg/kg iv",highly significant weight loss
same,body weight change compared to placebo,[2]; measured 1 week after each iv dose,lower in the treated groups than in those receiving placebo
same,significance of NEFA effect in older patients,"[2]; patients aged 35+, 2 hours post dose",highly significant
same,subjects experiencing euphoria (number of subjects),[2]; [5],5/23
same,subjects experiencing euphoria (percentage),[2]; [5],21.7%
same,gastrointestinal adverse effects,"[3]; 60 mg dose group, particularly in the hour after dose",increase in mild gastrointestinal effects
same,significance of body weight effect in subgroup,"[3]; age 35+ and BMI 35+ group, p<0.05",statistically significant
same,"SF-36 mental aggregate relative to placebo, all doses","[3]; at 8 days vs day 0, 10, 30, 60 mg/day oral for 7 days",improvement in the mental aggregate for all doses relative to placebo
same,significance of SF-36 improvement at 10 mg,"[3]; at 8 days, 10 mg/day oral, p<0.05",statistically significant
same,SF-36 physical aggregate relative to placebo,"[3]; at 14 days, dose 60 mg/day, only aggregate/dose worse than placebo",worse result that the placebo
same,"SF-36 mental aggregate scores relative to placebo, 10 mg","[3]; day 8, 10 mg/day oral",improvement
same,"SF-36 mental aggregate scores relative to placebo, 30 mg and 60 mg","[3]; day 8, 30 mg and 60 mg/day oral",worsening
same,body weight difference (anti-obesity effect),"[3]; morning of day 1 vs day 8, bell-shaped dose response",clear activity
same,"incidence of adverse events, active vs placebo","[3]; multiple oral doses, 7 days",no observable trends
same,"vital signs, ECG, physical examination and clinical laboratory assessments","[3]; multiple oral doses, 7 days",no clinically significant changes
same,"mood, Nottingham Health Profile questionnaire, response by dose","[4]; 30 mg single oral dose, lower is happier",greatest response
same,non-esterified fatty acid (NEFA) levels compared to placebo,"[4]; 1, 2 and 4 hours after AOD9604 27.6 mg oral, p<0.05",statistically significantly increased
same,NEFA response,"[4]; AOD9604 55.2 mg oral, compared with 27.6 mg",lower response
same,"mood, Nottingham Health Profile questionnaire","[4]; before dose vs 7 days after dose, all single oral doses (10, 30, 60 mg), placebo worsened",improvement of mood
same,tolerability,[4]; over the oral dose range 10-60 mg single dose,well tolerated
same,"incidence of adverse events, active vs placebo",[4]; single oral doses,no observable trends
same,"vital signs, ECG, physical examination and clinical laboratory assessments",[4]; single oral doses,no clinically significant changes
"hGH 177-191: synthetic peptide corresponding to amino acid residues 177-191 of the human growth hormone sequence (LRIVQCRSVEGSCGF; UniProt P01241 203-217, looked up, fragment)",body weight gain and adipose tissue mass,C57Bl/6J (Ob/Ob) mouse,reduce body weight gain and adipose tissue mass
